Measurements as given in patent US7132286B2, “Method for neural stem cell differentiation using valproate” (Psychiatric Genomics, Inc., priority 2001, dated 2006).
“Also recorded” adds a separate entry of the source.

What was measured:
Type in all cases: cell-based
[1] = system: human striatal stem cells (line 161); assay: Neuronal differentiation of human striatal stem cells (β tubulin III neurons, total cells); conditions: 9 days
Procedure: Expansion and differentiation of striatal human stem cells. Human stem cells were provided from ReNeuron Inc. (U.K.). Striatum was obtained after 6 to 12 weeks of gestation from routine legal abortion. Cell line was provided by ReNeuron at passage 16. The stem cells were expanded in untreated 25 cm^2 tissue culture flasks (Nunc, USA) in the presence of 20 ng/ml and 10 ng/ml of human recombinant EGF and bFGF respectively, in NSA basal serum-free medium (Euroclone, U.K). Fresh medium and growth factors were added every 3 days. In these conditions stem cells were growing as floating neurospheres. After 4 weeks, the neurospheres were harvested, treated with a mild papain treatment in HBSS and dissociated into a single cell suspension. Cells were counted and viability was estimated by trypan blue exclusion method. Cells were differentiated by growth factors removal. The cells were plated in NSA medium at 20,000 cells/well on LabTek permanox culture slides of 8 wells precoated with laminin (1 μg/ml). Cells were treated with valproate and BDNF for 9 days at 37° C. and a saturated humidified atmosphere of 5% CO2, 1% O2 and 94% N2. Fresh medium and re-treatment with factors was performed every 3 days.
Drug treatment. For immunofluorescence and Western analysis, cells were treated daily with either 0.5 mM of valproate (Sigma), 10 ng/ml of BDNF (R & D Systems), 20 ng/ml of NT-3 (R & D Systems), 1 nM 9cis retinoic acid (Sigma) or a dilution of NCM for 6 or 7 days. In some experiments valproate was also added with NCM and/or 9cis RA for 7 days. For human stem cell experiments, valproate (0.5 mM) or BDNF (25 ng/ml) was added for 9 days. For neurite outgrowth experiments, cells were treated for 1 day with 0.5 mM valproate or 50 ng/ml of BDNF. Where applicable, medium was changed every 2 days. After about 5–10 days, preferably on day 6 (i.e., after 6 days of drug exposure) the cells were fixed with a 4% solution of para-formaldehyde (PFA) in PBS, prepared as follows:
Immunofluorescent staining and visualization. Cells were plated at 20,000 cells/well in poly-L-ornithine/fibronectin (1 mg/ml) coated 24-well plates. […]
For counting, three to five different fields of interest at magnification 10× or 20× were chosen randomly. For immunofluorescence, 3 different black and white pictures were taken by field of interest with a digital camera CoolSnap Fx (Princeton) corresponding to the exposure of Cy2, Cy3 and Hoechst fluorescence. […] The percentage of neurons, astrocytes and GABAergic cells was determined by comparing the number of cells immunopositive for β-tubulin III, GFAP and GABA to the number of bis-benzamide stained nuclei (i.e., total cell number). […]

[2] = system: β tubulin-III; assay: Western blot of β tubulin-III expression in rat cortical stem cells; conditions: valproate 1 day
[3] = system: glutamate decarboxylase (GAD); assay: Western blot of GAD 65/67 expression in rat cortical stem cell cultures; conditions: 0.5 mM valproate
Procedure: Western blotting. Cells were plated at 1×10^6 cells/100 mm dish in poly-1-ornithine-coated 10 cm dishes and treated as described supra. Denatured proteins were separated on 8% polyacrylamide Tris-Glycine gels (Novex) and transferred to nitrocellulose membranes (BioRad). Membranes were probed with antibodies against rabbit anti-GAD 65/67 (Sigma) at 1:10,000 and HRP-conjugated anti-rabbit (Jackson Immunolabs) at 1:10,000 respective dilutions. Antigen-antibody complexes were visualized using a SuperSignal West Pico Chemiluminescent Kit (Pierce).

**Q.** With `CCCC(CCC)C(=O)O` [valproate, 2-Propylpentanoic acid] as the compound, how does the “effect on cell proliferation (cell density)” value [1] read?
**A.** without inhibiting cell proliferation

**Q.** And the “effect on number of β tubulin III positive neurons / neuronal differentiation” value [1]?
**A.** increased the number of β tubulin III positive neurons compared to control and BDNF-treated cultures; also recorded: increases neuronal differentiation in human stem cell culture

**Q.** What about the neuronal differentiation ([1]; 0.5 mM valproate, BDNF 25 ng/ml, untreated control 40%) of the same compound?
**A.** 70%

**Q.** And the “β-tubulin III expression by Western blot” value [2]?
**A.** increase of β-tubulin III expression; also recorded: increases β tubulin-III expression

**Q.** And the GAD expression ([3]; 3 and 6 days)?
**A.** GAD expression was increased; also recorded: increases GAD expression after 3 and 6 days

**Q.** What about the GAD expression ([3]; 1 day) of the same compound?
**A.** No expression of GAD was detectable
